Data published in patent US10111885B2, “Compositions and therapeutic methods for the treatment of complement-associated diseases” (Resverlogix Corp., priority 2015, dated 2018).

Key:
complement C3 mRNA = test: Complement mRNA expression in primary human hepatocytes; type: cell-based; conditions: 0.3 uM, maximum at 24 h, single donor
Description: (§1) Huh-7 and HepG2 cells are liver-derived cell lines and are models for what can occur in the liver. Huh-7 cells (JCRB Cell Bank) were introduced to 96-well plates (^˜2.5×10^5 per well) in 100 μL DMEM containing 10% (v/v) FBS, 100 U/mL penicillin, 100 ug/mL streptomycin and 5 ug/mL plasmocin (all reagents from Gibco, except for the former, which was obtained from Invivogen). After 24 h, Huh-7 cells were treated with compounds in the same media formulation used for plating, and supplemented with 0.1% DMSO for the amount of time indicated in tables 2, 3, and 4. For select experiments, 24 h post-plating, cells were treated with cytokines and the compound of interest simultaneously, for a total treatment time of 48 h. Alternatively, 24 h after plating, cells were pre-treated with cytokines for 24 h before adding the compound of interest for 48 h. HepG2 cells (ATCC) were cultured in 96-well plates (^˜2.5×10^5 per well) in MEM containing 10% FBS, 1× non-essential amino acids, 1 mM sodium pyruvate, 2 mM L-glutamine, 100 U/mL penicillin, 100 ug/mL streptomycin and 5 ug/mL plasmocin. Serum amount was reduced to 0.5% for treatments with compound or cytokines. Timing of treatment of HepG2 cells with compounds and cytokines was as described for Huh-7 cells. Primary human hepatocytes (CellzDirect/Life Technologies) were plated in collagen coated 96-well plates at 70 000 cells/well, then overlaid with Matrigel™ as recommended by the supplier. Cells were treated with compounds of interest and/or cytokines for the indicated time points in the recommended media supplemented with 0.1% DMSO and 10% FBS (v/v). Cells were harvested by mRNA Catcher PLUS Kit (Life Technologies) followed by real-time PCR using the RNA UltraSense One-Step qRT-PCR System. The level of the mRNA of interest was measured by TaqMan real-time PCR relative to the endogenous control cyclophilin A in the same sample.

complement C5 mRNA = test: as above; type: cell-based; conditions: 0.3 uM, maximum at 24 h, single donor
Description: as §1

complement C1S mRNA = test: as above; type: cell-based; conditions: 0.3 uM, maximum at 72 h, single donor
Description: as §1

complement C9 mRNA = test: as above; type: cell-based; conditions: 0.3 uM, maximum at 48 h, single donor
Description: as §1

MBL2 mRNA = test: as above; type: cell-based; conditions: 0.3 uM, maximum at 24 h, single donor
Description: as §1

complement C4 mRNA = test: as above; type: cell-based; conditions: 0.3 uM, maximum at 24 h, single donor
Description: as §1

complement C2 mRNA = test: as above; type: cell-based; conditions: 0.3 uM, maximum at 72 h, single donor
Description: as §1

[1] = tested on: Complement component 3 (C3) mRNA; test: Microarray analysis of ex-vivo treated human whole blood; type: cell-based; conditions: 20 uM, 24 h
Description: (§2) In this example, RNA from human whole blood treated ex vivo was analyzed by microarray. The method can be used to determine the effect of compounds, including those in the present invention, on RNA levels (Table 6).
(§3) After obtaining informed consent, whole blood was collected from three healthy volunteers into BD Vacutainer Sodium Heparin tubes and samples were inverted 10 times. Blood samples (1 mL) were combined with 1 mL of RPMI containing 2 mM glutamine, 100 U/mL penicillin, 100 ug/mL streptomycin, 20% FBS and the compound of interest or vehicle (0.1% DMSO), followed by a 24 h incubation at 37° C. Treated samples were transferred to a PAXgene RNA tube (PreAnalytix/Qiagen), inverted 5 times and frozen. RNA was isolated with the PAXgene RNA kit according to manufacturer's instructions. Microarray analysis was performed by Asuragen (Austin, Tex.) using the Affymetrix Human […]. Shown in Table 6 is the mean of 3 independent samples (p<0.01). Downregulation of expression of components of the complement cascade will result in reduced activity of the pathway and thus will constitute a positive result. Upregulation of negative regulators or downregulation of positive regulators of the pathway will also result in reduced activity of the pathway and thus will constitute a positive result.

CD59 mRNA = test: as above; type: cell-based; conditions: 20 uM, 24 h
Description: as §2, §3

CD55 mRNA = test: as above; type: cell-based; conditions: 20 uM, 24 h
Description: as §2, §3

[2] = tested on: classical complement system hemolytic activity (sensitized sheep erythrocytes); test: Total hemolytic complement (CH50) assay on clinical serum samples; type: in vivo, human; conditions: ASSURE trial, 26 weeks vs baseline
Description: The method can be used to determine the effect of compounds, including those in the present invention, on the activity of the classical and alternative complement system in clinical samples. […] Using the CH50 screening assay to detect the hemolysis of sheep erythrocytes sensitized by specific antibodies, the hemolytic activity of the complement system in serum samples from treated and untreated subjects was measured. Likewise, using specific conditions to activate only the alternative pathway (AH50), activity of the complement response was measured. The degree of complement activation was measured at baseline and terminally to determine if there were any changes in the function of the complement system following drug treatment (FIG. 7). Reduced function of the complement system constitutes a positive result.

[3] = tested on: Complement Factor H - Related Protein 1 (CFHR1); test: Multi-analyte profiling of plasma, ASSURE trial; type: in vivo, human; conditions: week 26 vs. baseline, N 17
Description: (§4) In this example, plasma samples from human subjects treated with placebo or RVX000222 was analyzed by Multi-Analyte Profiling (MAP) technology. The method can be used to determine the effect of compounds, including those in the present invention, on the levels of various analytes in plasma (Table 8).

Complement C3 (C3) = test: Multi-analyte profiling of plasma, ASSURE trial; type: in vivo, human; conditions: week 26 vs. baseline, N 20
Description: as §4

[4] = tested on: Complement Factor H (CFH); test: Multi-analyte profiling of plasma, ASSURE trial; type: in vivo, human; conditions: week 26 vs. baseline, N 20
Description: as §4

Structure (SMILES) | C3 percent maximal reduction in gene expression (complement C3 mRNA) | C5 percent maximal reduction in gene expression (complement C5 mRNA) | C1S percent maximal reduction in gene expression (complement C1S mRNA) | C9 percent maximal reduction in gene expression (complement C9 mRNA) | MBL2 percent maximal reduction in gene expression (MBL2 mRNA) | C4 percent maximal reduction in gene expression (complement C4 mRNA) | C2 percent maximal reduction in gene expression (complement C2 mRNA) | Complement component 3 (C3) % change in expression [1] | CD59 % change in expression (CD59 mRNA) | CD55 % change in expression (CD55 mRNA) | complement activity in clinical samples, CHSO assay (FIG. 7B) [2] | Complement Factor H - Related Protein 1 (CFHR1) Change from baseline [3] | Complement Factor H - Related Protein 1 (CFHR1) Percent Change from baseline [3] | Complement C3 (C3) Change from baseline (Complement C3 (C3)) | Complement C3 (C3) Percent Change from baseline (Complement C3 (C3)) | Complement Factor H (CFH) Change from baseline [4] | Complement Factor H (CFH) Percent Change from baseline [4]
Cc1sc2c(c1C)C(c1ccc(Cl)cc1)=N[C@@H](CC(=O)OC(C)(C)C)c1nnc(C)n1-2 [JQ1, (S)-tert-butyl 2-(4-(4-chlorophenyl)-2,3,9-trimethyl-6H-thieno[3,2-f][1,2,4]triazolo[4,3-a][1,4]diazepin-6-yl)acetate, reference compound] | 54% (24 h) | 67% (24 h) | 22% (72 h) | 72% (48 h) | 93% (24 h) | 31% (24 h) | 29% (72 h) | – | – | – | – | – | – | – | – | – | –
COc1cc(OC)c2c(=O)[nH]c(-c3cc(C)c(OCCO)c(C)c3)nc2c1 [RVX000222, 2-(4-(2-hydroxyethoxy)-3,5-dimethylphenyl)-5,7-dimethoxyquinazolin-4(3H)-one] | – | – | – | – | – | – | – | −59% | 88% | 58% | reduces complement activity | -291.76 µg/mL | −10.75% | -0.1 mg/mL | −9.28% | -75.35 µg/mL | −11.45%
